The source of these data is the NIST ThermoML archive (doi:10.1016/j.fluid.2013.01.004).

Molecules are shown by their SMILES. ± gives the expanded uncertainty stated by the source.

A short description of series [1]: refractive index (Na D-line) (dimensionless); wn = mass fraction of the nth substance listed. The conditions noted are these: 323.15 K, 101 kPa, Liquid, Standard Abbe refractometry.
Series [2] is described as follows: wn = mass fraction of the nth substance listed. As to conditions: 323.15 K, 101 kPa, Liquid, Pycnometric method.

In general, refractive index refers to the speed of light in vacuum divided by its phase velocity in the sample. Usually mass density stands for the mass of a sample divided by its volume. `[Br-].[Br-].[Mg+2]` [magnesium bromide (MgBr2)] + O: the refractive index in series [1] (w1 = 0.5202) is 1.462 ± 0.0013. In addition, the mass density in series [2] (w1 = 0.5202) came to 1662.2 ± 9.3 kg/m3.
As to `O=S(=O)([O-])[O-].[Mg+2]` [magnesium sulfate] + O, the refractive index in series [1] (w1 = 0.338) was 1.3982 ± 0.0012. For the same molecule, in series [2] (w1 = 0.338), the mass density is on record as 1387.2 ± 2.1 kg/m3.
